Measured values as given in patent US10077232B2, “Cyclic cationic lipids and methods of use” (ARBUTUS BIOPHARMA CORPORATION, priority 2010, dated 2018).

Assay: TNS assay, apparent pKa of cationic lipids in 1:57 SNALP
Settings: not given

Row | Structure (SMILES) | pKa
1 | CCCCCCCCC1CC1CCCCCCCCOCC(CN(C)C)OCCCCCCCCC1CC1CCCCCCCC (stereo not drawn) [CP-DODMA] | ~5.8
2 | CCCCCC1CC1CC1CC1CC1CC1CCCCCC(CCCCCC1CC1CC1CC1CC1CC1CCCCC)OC(=O)CCCN(C)C (stereo not drawn) [CP-γ-LenMC3] | ~6
3 | CCCCCCCCCCCC1CC1CCCCCOCC(CN(C)C)OCCCCCC1CC1CCCCCCCCCCC (stereo not drawn) [CP-DPetroDMA] | ~5.95
4 | CCC1CC1CC1CC1CC1CC1CCCCCCCCC(CCCCCCCCC1CC1CC1CC1CC1CC1CC)OC(=O)CCCN(C)C (stereo not drawn) [CP-LenMC3] | ~6.1

Other lines, results leading:

Row | pKa | Structure (SMILES)
5 | ~6.1 | CCCCC/C=C\C/C=C\C/C=C\CCCCCC(CCCCC/C=C\C/C=C\C/C=C\CCCCC)OC(=O)CCCN(C)C [g-Len-MC3]
6 | ~5.85 | CCC1CC1CC1CC1CC1CC1CCCCCCCCOCC(CN(C)C)OCCCCCCCCC1CC1CC1CC1CC1CC1CC (stereo not drawn) [CP-DLenDMA]
7 | ~5.8 | CCCCCC1CC1CC1CC1CC1CC1CCCCCOCC(CN(C)C)OCCCCCC1CC1CC1CC1CC1CC1CCCCC (stereo not drawn) [CP-γ-DLenDMA]
8 | ~5.8 | CCCCCC1CC1CC1CC1CCCCCCCCOCC(CN(C)C)OCCCCCCCCC1CC1CC1CC1CCCCC (stereo not drawn) [CP-DLinDMA]

Same assay, conditions: 1:57 SNALP with encapsulated ApoB siRNA; pH where TNS fluorescence equals 50% of total

Row | pKa (apparent, surface) | Structure (SMILES)
9 | ~5.85 | CCCCC/C=C\C/C=C\CCCCCCCCOCC(COCC(CCN(C)C)OCCCCCCCC/C=C\C/C=C\CCCCC)OCCCCCCCC/C=C\C/C=C\CCCCC (stereo not drawn) [Compound C2-TLinDMA, reference compound]
